The results in this text go back to patent US12492174B2, “Morpholine-3-carboxamide derivatives as prostaglandin E2 receptor 4 (EP4) agonists for the treatment of gastrointestinal and pulmonary diseases” (NXERA PHARMA UK LIMITED, priority 2022, dated 2025).

The target in one data set is T1, human EP4 (Homo sapiens, UniProt P35408).
T1 construct: expressed in transfected cells; host or cells: HEK293 cells transduced with EP4 BacMam virus
Description: cAMP Gs functional assay (HTRF cAMP dynamic-2). Format: cell-based. The conditions noted are these: for Emax: HEK293, HEK293 cells transfected with EP4 Bacmam virus, positive control 10 uM PGE2; for EC50: HEK293 cells transfected with EP4 Bacmam virus, 30 mins at 37° C., −Log of the molarity (M), read-out: cAMP human EP4 pEC50 (converted). Here is the method: Cloning, Baculovirus generation, large scale infection of HEK293 cells and membrane preparation: Human prostaglandin E2 receptor 4 (EP4) was cloned into pBacMam expression vector (GeneScript, UK). Transposition of EP4 DNA was performed using Invitrogen's Bac-to-Bac Baculovirus Expression Systems. P0 baculovirus was generated by transfecting SF9 Cells with bacmid DNA using Cellfectin II transfection reagent (ThermoFisher Scientific, UK). Following P0 generation P1 virus was then generated ready for large scale infection and membrane preparation. HEK293 cells were grown in DMEM (ThermoFisher Scientific, UK), supplemented with 10% heat inactivated fetal bovine serum (FBS). Cells were infected at a seeding density of 3.5 million cells/mL in 500 cm^3 flasks at 5% v/v EP4 Bacman. Expression was carried out over a 36 hr period at 37° C. with 5% CO2. The cells were removed using PBS and a cell scrapper. The cell culture was centrifuged at 2500 RPM for 10 mins at 4° C. The supernatant was then poured off and the pellet stored at −80° C. The pellet was defrosted and re-suspended in 15 mL of homogenising buffer (20 mM HEPES, 10 mM EDTA, pH 7.4). Then homogenised in mechanical homogeniser (VMR) for 10 seconds. The membrane was centrifuged in centrifuge tubes at 40,000 g for 15 mins at 4° C. The supernatant was poured away and re-suspended in 15 mL of homogenising buffer. Homogenised for 20 seconds. The membrane was centrifuged at 40,000 g for 45 mins at 4° C. The membrane was re-suspended in 3 mL of storage buffer (20 mM HEPES, 0.1 mM EDTA, pH 7.4) mixing well. The resulting membranes were then stored at −80° C.
cAMP Gs Functional Assay: cAMP production following EP4 receptor activation was determined using the Homogeneous Time-Resolved Fluorescence (HTRF) cAMP dynamic-2 assay (Cisbio, France). HEK293 cells were transfected using a 0.5% EP4 Bacmam virus for 36 hours, before dissociating the cells, and freezing at −150° C.
On the day of testing, increasing concentration of test compounds, alongside positive controls (10 uM PGE2 (Tocris, Abingdon, UK)) and negative control (DMSO (Sigma-Aldrich, UK) were added to a ProxiPlate-384 Plus, White 384-shallow well Mircoplate, (PerkinElmer, USA) using the ECHO dispense.
Cells were defrosted in a water bath and resuspended in DMEM supplemented with 10% FBS before centrifuging at 1200 RPM for 5 mins to form a pellet. The pellet was resuspended in assay buffer (DMEM+0.5 mM IBMX (Tocris, Abingdon, UK)) to 0.5×10^6 cells/mL. Cell suspension, for a final assay concentration of 5000 cell/well was added using the multidrop to the pre-dispensed assay plate. The plate was then incubated at 37° C. for 30 mins, with 5% CO2. The cAMP production was determined as manufacturer's instructions, before plates were read on a PheraStar fluorescence plate reader (BMG LabTech, Germany).
The pEC50 values (−Log of the molarity (M) in mol/liter) were calculated from the mid-point of the curve using dotmatics as shown in Table 3.

A short description of data set [1]: Unidirectional Caco-2 cell permeability assay. In kind it is in vitro ADME. The note with it: human, n=2, apical pH 6.5, basolateral pH 7.4, 1 hour, 37° C. Here is the method: Caco-2 cells (ECACC) were seeded onto 24-well Transwell plates at 2×10^5 cells per well and used in confluent monolayers after a 21 day culture at 37° C. under 5% CO2. Test compounds were incubated at 10 μM, 0.2% DMSO final, n=2 in assay buffer (Hanks balanced salt solution supplemented with 25 mM HEPES, adjusted to pH 6.5). Hanks balanced salt solution supplemented with 25 mM HEPES, adjusted to pH 7.4 (0.2% DMSO final) was used for the basolateral chamber (as receiver).
Incubations were performed at 37° C., with samples removed from both donor and acceptor chambers at T=0 and 1 hour and compound analysed by mass spectrometry (LC-MS/MS) including an analytical internal standard (0.5 μM carbamazepine).
Apparent permeability (Papp) values are shown in Table 4 and were determined from the relationship:
Where V is the volume of each Transwell compartment (apical 125 μL, basolateral 600 μL), and concentrations are the relative MS responses for compound (normalized to internal standard) in the donor chamber before incubation and acceptor chamber at the end of the incubation Area=area of cells exposed for drug transfer (0.33 cm^2).
Lucifer Yellow (LY) was added to the apical buffer in all wells to assess viability of the cell layer. As LY cannot freely permeate lipophilic barriers, a high degree of LY transport indicates poor integrity of the cell layer and wells with a LY Papp>10×10^−6 cm/s were rejected.
Compound recovery from the wells was determined from MS responses (normalized to internal standard) in donor and acceptor chambers at the end of incubation compared to response in the donor chamber pre-incubation.

T1 sequence (P35408 whole entry): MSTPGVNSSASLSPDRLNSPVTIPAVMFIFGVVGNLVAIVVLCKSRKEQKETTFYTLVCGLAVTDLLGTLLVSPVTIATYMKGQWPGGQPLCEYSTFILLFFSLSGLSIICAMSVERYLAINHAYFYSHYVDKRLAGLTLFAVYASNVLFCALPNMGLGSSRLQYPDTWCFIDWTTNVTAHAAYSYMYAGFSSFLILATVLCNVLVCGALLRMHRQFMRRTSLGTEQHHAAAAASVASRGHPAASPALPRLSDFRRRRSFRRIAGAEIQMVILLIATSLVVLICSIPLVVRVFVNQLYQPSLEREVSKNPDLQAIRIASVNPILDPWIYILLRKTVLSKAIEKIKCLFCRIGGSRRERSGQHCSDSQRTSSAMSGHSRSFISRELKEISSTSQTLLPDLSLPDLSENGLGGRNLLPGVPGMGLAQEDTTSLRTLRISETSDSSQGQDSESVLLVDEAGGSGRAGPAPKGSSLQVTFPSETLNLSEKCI

Regarding `Cc1cc(OS(N)(=O)=O)ccc1-c1cc(O)cc(CN2CCOC[C@@H]2C(=O)N[C@@H](C)c2ccc(C(=O)O)cc2)c1` [Example 15, 4-[(1S)-1-[[(3R)-4-[[3-hydroxy-5-(2-methyl-4-sulfamoyloxy-phenyl)phenyl]methyl]morpholine-3-carbonyl]amino]ethyl]benzoic acid], at human EP4, the Emax worked out at 98% and the EC50 was 3.98e-10 M. For the same molecule, the Papp A→B at 1 h, 10 μM in data set [1] was less than 0.1 ×10⁻⁶ cm/s.

In the case of `C[C@H](NC(=O)[C@H]1COCCN1Cc1ccc(O)c(-c2ccc(S(N)(=O)=O)cc2)c1)c1ccc(C(=O)O)cc1` [Example 24, 4-[(1S)-1-[[(3R)-4-[[4-hydroxy-3-(4-sulfamoylphenyl)phenyl]methyl]morpholine-3-carbonyl]amino]ethyl]benzoic acid], on human EP4, the Emax was determined as 96% and the EC50 is 2.51e-08 M. The molecule further came in with a Papp A→B at 1 h, 10 μM in data set [1] of 0.26 ×10⁻⁶ cm/s.

Turning to `Cc1cc(C(N)=O)ccc1-c1cccc(CN2CCOC[C@@H]2C(=O)N[C@@H](C)c2ccc(C(=O)O)c(O)c2)c1` [Example 19, 4-((S)-1-((R)-4-((4′-carbamoyl-2′-methyl-[1,1′-biphenyl]-3-yl)methyl)morpholine-3-carboxamido)ethyl)-2-hydroxybenzoic acid], on human EP4, the Emax was determined as 99% and the EC50 is 1e-08 M. In addition, the Papp A→B at 1 h, 10 μM in data set [1] was less than 0.1 ×10⁻⁶ cm/s.

On to `Cc1cc(C(N)=O)ccc1-c1cncc(CN2CCOC[C@@H]2C(=O)N[C@@H](C)c2ccc(C(=O)O)c(O)c2)c1` [Example 28, 4-((S)-1-((R)-4-((5-(4-carbamoyl-2-methylphenyl)pyridin-3-yl)methyl)morpholine-3-carboxamido)ethyl)-2-hydroxy benzoic acid], for which the Emax on human EP4 stood at 100%. The Papp A→B at 1 h, 10 μM in data set [1] is 0.23 ×10⁻⁶ cm/s.

Consider `Cc1cc(C(N)=O)ccc1-c1cccc(CN2CCOC[C@@H]2C(=O)NCc2ccc(C(=O)O)c(F)c2)c1` [Example 13, 4-[[[(3R)-4-[[3-(4-carbamoyl-2-methyl-phenyl)phenyl]methyl]morpholine-3-carbonyl]amino]methyl]-2-fluoro-benzoic acid], for which, at human EP4, the Emax came to 96% and the EC50 was 1.26e-08 M. The molecule also gave a Papp A→B at 1 h, 10 μM in data set [1] of 0.32 ×10⁻⁶ cm/s.

On to `Cc1cc(C(N)=O)ccc1-c1cccc(CN2CCOC[C@@H]2C(=O)NC2(c3ccc(C(=O)O)cc3)CC2)c1` [Example 31, (R)-4-(1-(4-((4′-carbamoyl-2′-methyl-[1,1′-biphenyl]-3-yl)methyl)morpholine-3-carboxamido)cyclopropyl)benzoic acid], for which, at human EP4, the Emax was determined as 98% and the EC50 was 1.26e-10 M. This molecule also displayed a Papp A→B at 1 h, 10 μM in data set [1] of 0.66 ×10⁻⁶ cm/s.

With `Cc1cc(C(N)=O)ccc1-c1cccc(CN2CCOC[C@@H]2C(=O)NCc2cc(F)c(C(=O)O)c(F)c2)c1` [Example 8, 4-[[[(3R)-4-[[3-(4-carbamoyl-2-methyl-phenyl)phenyl]methyl]morpholine-3-carbonyl]amino]methyl]-2,6-difluoro-benzoic acid], at human EP4, the Emax stood at 96% and the EC50 is 1.58e-07 M. Moreover, in data set [1], the Papp A→B at 1 h, 10 μM is less than 0.1 ×10⁻⁶ cm/s.

As for `Cc1cc(C(N)=O)ccc1-c1cc(O)cc(CN2CCOC[C@@H]2C(=O)N[C@@H](C)c2ccc(C(=O)O)c(O)c2)c1` [Example 18, 4-((S)-1-((R)-4-((4′-carbamoyl-5-hydroxy-2′-methyl-[1,1′-biphenyl]-3-yl)methyl)morpholine-3-carboxamido)ethyl)-2-hydroxybenzoic acid], on human EP4, the Emax came to 99% and the EC50 is 3.98e-10 M. The Papp A→B at 1 h, 10 μM in data set [1] was 0.78 ×10⁻⁶ cm/s.

Regarding `Cc1cc(S(N)(=O)=O)ccc1-c1cc(O)cc(CN2CCOC[C@@H]2C(=O)N[C@@H](C)c2ccc(C(=O)O)cc2)c1` [Example 11, 4-[(1S)-1-[[(3R)-4-[[3-hydroxy-5-(2-methyl-4-sulfamoyl-phenyl)phenyl]methyl]morpholine-3-carbonyl]amino]ethyl]benzoic acid], on human EP4, the Emax worked out at 98% and the EC50 is 3.98e-10 M. This molecule yielded a Papp A→B at 1 h, 10 μM in data set [1] of less than 0.1 ×10⁻⁶ cm/s.

`Cc1cc(C(N)=O)ccc1-c1cc(O)cc(CN2CCOC[C@@H]2C(=O)N[C@@H](C)c2ccc(C(=O)O)cc2)c1` [Example 10, 4-((S)-1-((R)-4-((4′-carbamoyl-5-hydroxy-2′-methyl-[1,1′-biphenyl]-3-yl)methyl)morpholine-3-carboxamido)ethyl)benzoic acid]: at human EP4, the Emax turned out to be 98% and the EC50 was 2e-10 M. The same molecule gave a Papp A→B at 1 h, 10 μM in data set [1] of less than 0.1 ×10⁻⁶ cm/s.

Regarding `Cc1cc(C(N)=O)ccc1-c1cc(O)cc(CN2CCOC[C@H]2C(=O)N[C@@H](C)c2ccc(C(=O)O)cc2)c1` [Example 37, 4-((S)-1-((S)-4-((4′-carbamoyl-5-hydroxy-2′-methyl-[1,1′-biphenyl]-3-yl)methyl)morpholine-3-carboxamido)ethyl)benzoic acid], on human EP4, the EC50 is greater than 1e-07 M. In data set [1], the Papp A→B at 1 h, 10 μM is less than 0.1 ×10⁻⁶ cm/s.

Consider `Cc1cc(S(N)(=O)=O)ccc1-c1cncc(CN2CCOC[C@@H]2C(=O)N[C@@H](C)c2ccc(C(=O)O)c(O)c2)c1` [Example 21, 2-hydroxy-4-((S)-1-((R)-4-((5-(2-methyl-4-sulfamoylphenyl)pyridin-3-yl)methyl)morpholine-3-carboxamido)ethyl)benzoic acid], for which, at human EP4, the Emax worked out at 99% and the EC50 was 1.58e-08 M. In data set [1], this molecule came in with a Papp A→B at 1 h, 10 μM of less than 0.1 ×10⁻⁶ cm/s.

As to `Cc1cc(C(N)=O)ccc1-c1cccc(CN2CCOC[C@@H]2C(=O)N[C@@H](C)c2ccc(C(=O)O)cc2)c1` [Example 7, 4-((S)-1-((R)-4-((4′-carbamoyl-2′-methyl-[1,1′-biphenyl]-3-yl)methyl)morpholine-3-carboxamido)ethyl)benzoic acid], at human EP4, the Emax turned out to be 99% and the EC50 is 1.58e-09 M. The same molecule yielded an apical-to-basolateral permeability (Papp A→B) at 1 h, 10 μM in data set [1] of 0.66 ×10⁻⁶ cm/s.

Turning to `Cc1cc(S(N)(=O)=O)ccc1-c1cccc(CN2CCOC[C@@H]2C(=O)N[C@@H](C)c2ccc(C(=O)O)c(O)c2)c1` [Example 25, 2-hydroxy-4-((S)-1-((R)-4-((2′-methyl-4′-sulfamoyl-[1,1′-biphenyl]-3-yl)methyl)morpholine-3-carboxamido)ethyl)benzoic acid], on human EP4, the Emax worked out at 97% and the EC50 was 6.31e-09 M. In data set [1], this molecule gave a Papp A→B at 1 h, 10 μM of less than 0.1 ×10⁻⁶ cm/s.

For the molecule `Cc1cc(C(N)=O)ccc1-c1cc(O)cc(CN2CCOC[C@@H]2C(=O)NC2(c3ccc(C(=O)O)cc3)CC2)c1` [Example 33, (R)-4-(1-(4-((4′-carbamoyl-5-hydroxy-2′-methyl-[1,1′-biphenyl]-3-yl)methyl)morpholine-3-carboxamido)cyclopropyl)benzoic acid], at human EP4, the maximum response (Emax) amounted to 93% and the EC50 is 3.16e-12 M. The molecule further came in with a Papp A→B at 1 h, 10 μM in data set [1] of 0.14 ×10⁻⁶ cm/s.
